Earlier results as cited in patent publication USRE41489E1 (priority 1997, dated 2010).
Where two headings read alike, the source gives them in different places.

Tests used:
δ receptors = δ receptors (Homo sapiens, UniProt P41143)
[1] = parenteral, on a weight basis
[2] = estimated
[3] = rats
[4] = not given; remark: listed apart in the source
[5] = conscious postoperative patients
[6] = intravenous single dose of about 0.3 mg

δ receptors, sequence (P41143 whole entry): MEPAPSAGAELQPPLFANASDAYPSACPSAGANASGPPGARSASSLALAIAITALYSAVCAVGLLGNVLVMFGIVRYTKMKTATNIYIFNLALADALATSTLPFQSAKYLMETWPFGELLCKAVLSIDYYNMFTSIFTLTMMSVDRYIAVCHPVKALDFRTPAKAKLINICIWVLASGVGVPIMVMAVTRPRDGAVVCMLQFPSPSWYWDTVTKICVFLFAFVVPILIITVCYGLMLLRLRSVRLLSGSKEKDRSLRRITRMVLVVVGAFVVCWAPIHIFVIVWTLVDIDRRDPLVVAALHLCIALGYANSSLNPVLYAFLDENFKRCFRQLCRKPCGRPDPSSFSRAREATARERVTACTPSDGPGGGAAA

## CO[C@]12CC[C@@]3(C[C@@H]1[C@](C)(O)C(C)(C)C)[C@H]1Cc4ccc(O)c5c4[C@@]3(CCN1CC1CC1)[C@H]2O5 [buprenorphine, 21-cyclopropyl-7-[(S)-1-hydroxy-1,2,2-trimethylpropyl]-6,14-endo-ethano-6,7,8,14-tetrahydrooripavine]
δ receptors
  binding affinity to δ receptors: lower affinity
[1]
  analgesic potency relative to meperidine: about 600 times
  analgesic potency relative to pentazocine: about 200 times
Plasma proteins
  bound to plasma proteins: approximately 96%
0.4 mg sublingual single dose
  Cmax: 0.50 ± 0.06 ng/mL
  Tmax: 3.5 ± 0.667 h
  systemic availability: 57.7%
0.8 mg sublingual single dose
  Cmax: 1.04 ± 0.27 ng/mL
  Tmax: 3.2 ± 0.817 h
  systemic availability: 54.1%
[2]
  oral bioavailability: 15%
[3]; intramuscular administration
  time to highest concentrations in the liver: ≤ 40 min
[3]; oral administration
  time to highest concentrations in the liver: ≤ 10 min
[4]; intramuscular second 0.3-mg dose 3 hours after the initial intravenous dose
  mean peak plasma buprenorphine concentration: about 3.6 ng/ml
[4]; intramuscular second 0.3-mg dose, after about 3 hours
  plasma concentration: about 0.4 ng/ml
[4]; intravenous about 0.3 mg, after about 5 minutes
  plasma concentration: about 9 ng/ml
[4]; intravenous about 0.3 mg, after about 3 hours
  plasma concentration: about 0.4 ng/ml
[4]; [6]
  mean peak plasma drug concentration: about 18 ng/ml
  time of mean peak plasma concentration: ≤ 2 min
[5]
  total plasma clearance: approximately 1.28 l/minute
